In US9273003B2, “Methods of treating lymphoma and rheumatoid arthritis with cyclopentyl (2S)-cyclohexyl[({6-[3-(hydroxyamino)-3-oxopropyl]pyridin-3-yl}methyl)amino]acetate” (GlaxoSmithKline Intellectual Property Development Limited, priority 2006, dated 2016):

What was measured:
[1] = biological target: histone deacetylase activity (HeLa nuclear extract); experiment: HDAC fluorescent activity assay (Fluor de Lys, Biomol); format: biochemical; details: IC50 allocated to ranges, read-out: HDAC activity
Protocol: The ability of compounds to inhibit histone deacetylase activities was measured using the commercially available HDAC fluorescent activity assay from Biomol. In brief, the Fluor de Lys™ substrate, a lysine with an epsilon-amino acetylation, is incubated with the source of histone deacetylase activity (HeLa nuclear extract) in the presence or absence of inhibitor. Deacetylation of the substrate sensitises the substrate to Fluor de Lys™ developer, which generates a fluorophore. Thus, incubation of the substrate with a source of HDAC activity results in an increase in signal that is diminished in the presence of an HDAC inhibitor.
Data are expressed as a percentage of the control, measured in the absence of inhibitor, with background signal being subtracted from all samples, as follows: % activity=[(S^i−B)/(S^o−B)]×100 where S^i is the signal in the presence of substrate, enzyme and inhibitor, S^o is the signal in the presence of substrate, enzyme and the vehicle in which the inhibitor is dissolved, and B is the background signal measured in the absence of enzyme.
IC50 values were determined by non-linear regression analysis, after fitting the results of eight data points to the equation for sigmoidal dose response with variable slope (% activity against log concentration of Compound), using Graphpad Prism software.
Histone deacetylase activity from crude nuclear extract derived from HeLa cells was used for screening. The preparation, purchased from 4C (Seneffe, Belgium), was prepared from HeLa cells harvested whilst in exponential growth phase. The nuclear extract was prepared according to the methodology described by J. D. Dignam, Nucl. Acid. Res., 1983, 11, 1475-1489, snap frozen in liquid nitrogen and stored at −80° C. The final buffer composition was 20 mM Hepes, 100 mM KCl, 0.2 mM EDTA, 0.5 mM DTT, 0.2 mM PMSF and 20% (v/v) glycerol.

HUT78 cells = experiment: HUT cell inhibition assay (WST-1 cell viability); format: cell-based; details: Homo sapiens; HUT78 cells; IC50 allocated to ranges; read-out: HUT activity
Protocol: (§1) Cancer cell lines (U937 and HUT) growing in log phase were harvested and seeded at 1000-2000 cells/well (100 μl final volume) into 96-well tissue culture plates. Following 24 h of growth cells were treated with Compound. Plates were then re-incubated for a further 72-96 h before a WST-1 cell viability assay was conducted according to the suppliers (Roche Applied Science) instructions.
(§2) Data were expressed as a percentage inhibition of the control, measured in the absence of inhibitor, as follows: % inhibition=100−[(S^i/S^o)×100] where S^i is the signal in the presence of inhibitor and S^o is the signal in the presence of DMSO.
(§3) Dose response curves were generated from 8 concentrations (top final concentration 10 μM, with 3-fold dilutions), using 6 replicates.
(§4) IC50 values were determined by non-linear regression analysis, after fitting the results to the equation for sigmoidal dose response with variable slope (% activity against log concentration of Compound), using Graphpad Prism software.

U937 cells = experiment: U937 cell inhibition assay (WST-1 cell viability); format: cell-based; details: Homo sapiens, U-937; U937 cells; IC50 allocated to ranges; read-out: U937 activity
Protocol: as §1, §2, §3, §4

Row | Compound | IC50 [1] | IC50 (HUT78 cells) | IC50 (U937 cells)
1 | O=C(/C=C/c1ccc(CN[C@H](C(=O)OCCN2CCOCC2)C2CCCCC2)cc1)NO [Example 30, 2-Morpholin-4-ylethyl (2S)-cyclohexyl({4-[(1E)-3-(hydroxyamino)-3-oxoprop-1-en-1-yl]benzyl}amino)acetate] | 0.101 to 1 µM | < 0.33 µM | < 0.33 µM
2 | CC(C)(C)OC(=O)[C@@H](NCc1ccc(/C=C/C(=O)NO)cc1)C1CCCCC1 [Example 32, tert-Butyl (2S)-cyclohexyl({4-[(1E)-3-(hydroxyamino)-3-oxoprop-1-en-1-yl]benzyl}amino)acetate] | < 0.1 µM | 0.331 to 3.3 µM | 0.331 to 3.3 µM
3 | O=C(/C=C/c1ccc(CN[C@H](C(=O)OC2CCCC2)C2CCCCC2)cn1)NO [Example 53, Cyclopentyl (2S)-cyclohexyl[({6-[(1E)-3-(hydroxyamino)-3-oxoprop-1-en-1-yl]pyridin-3-yl}methyl)amino]acetate] | < 0.1 µM | < 0.33 µM | < 0.33 µM
4 | CC(C)C[C@H](NCc1ccc(CNCc2ccc(CCC(=O)NO)cc2)cc1)C(=O)OC(C)(C)C [Example 78, tert-Butyl N-{4-[({4-[3-(hydroxyamino)-3-oxopropyl]benzyl}amino)methyl]benzyl}-L-leucinate] | 0.101 to 1 µM | 0.331 to 3.3 µM | < 0.33 µM
5 | CN(C)CCOC(=O)[C@@H](NCc1ccc(/C=C/C(=O)NO)cc1)C1CCCCC1 [Example 31, 2-(Dimethylamino)ethyl (2S)-cyclohexyl({4-[(1E)-3-(hydroxyamino)-3-oxoprop-1-en-1-yl]benzyl}amino)acetate] | < 0.1 µM | 0.331 to 3.3 µM | < 0.33 µM
6 | CC(C)C[C@H](NCc1ccc(CCC(=O)NO)nc1)C(=O)O[C@@H]1C[C@H](C)CC[C@H]1C(C)C [Example 67, (1R,2S,5R)-2-Isopropyl-5-methylcyclohexyl N-({6-[3-(hydroxyamino)-3-oxopropyl]pyridin-3-yl}methyl)-L-leucinate] | 0.101 to 1 µM | 0.331 to 3.3 µM | < 0.33 µM
7 | CC(C)[C@H](NCc1ccc(CCC(=O)NO)cc1)C(=O)O [Example 99] | > 1 µM |  | 
8 | CC(C)C[C@H](NCc1ccc(CCC(=O)NO)nc1)C(=O)O [Example 110, N-({6-[3-(hydroxyamino)-3-oxopropyl]pyridin-3-yl}methyl)-L-leucine] | 0.101 to 1 µM |  | 
9 | O=C(CCc1cccc(CN[C@H](C(=O)OC2CCCC2)c2ccccc2)c1)NO [Example 51, Cyclopentyl (2S)-({3-[3-(hydroxyamino)-3-oxopropyl]benzyl}amino)(phenyl)acetate] | > 1 µM | > 3.3 µM | > 3.3 µM
10 | O=C(CCc1ccc(CN2CCNC(C(=O)O)C2)cc1)NO (stereo not drawn) [Example 114, 4-{4-[3-(Hydroxyamino)-3-oxopropyl]benzyl}piperazine-2-carboxylic acid] | > 1 µM |  | 
11 | CC(C)[C@@H]1CC[C@@H](C)C[C@H]1OC(=O)[C@@H](NCc1ccc(CCC(=O)NO)cc1)C1CCCCC1 [Example 46, (1R,2S,5R)-2-Isopropyl-5-methylcyclohexyl (2S)-cyclohexyl({4-[3-(hydroxyamino)-3-oxopropyl]benzyl}amino)acetate] | > 1 µM | > 3.3 µM | > 3.3 µM
12 | O=C(CCc1ccc(CN2CCNC(C(=O)OC3CCCC3)C2)cc1)NO (stereo not drawn) [Example 113, Cyclopentyl 4-{4-[3-(hydroxyamino)-3-oxopropyl]benzyl}piperazine-2-carboxylate] | 0.101 to 1 µM | 0.331 to 3.3 µM | 0.331 to 3.3 µM
13 | CC(C)C[C@H](NCc1cccc(CCC(=O)NO)c1)C(=O)OC1CCCC1 [Example 52, Cyclopentyl N-{3-[3-(hydroxyamino)-3-oxopropyl]benzyl}-L-leucinate] | > 1 µM | > 3.3 µM | 0.331 to 3.3 µM
14 | O=C(CCc1ccc(CN[C@H](C(=O)O)C2CCCCC2)nc1)NO [Example 104] | 0.101 to 1 µM |  | 
15 | O=C(/C=C/c1ccc(CN2CCC(CN[C@H](C(=O)O)c3ccccc3)CC2)cc1)NO [Example 107] | > 1 µM |  | 
16 | CC(C)C[C@H](NCc1ccc(/C=C/C(=O)NO)cc1)C(=O)O [Example 89] | < 0.1 µM |  | 
17 | CC(C)C[C@H](NCc1ccc(CCC(=O)NO)cc1)C(=O)OC1CCCC1 [Example 34, Cyclopentyl N-{4-[3-(hydroxyamino)-3-oxopropyl]benzyl}-L-leucinate] | 0.101 to 1 µM | < 0.33 µM | < 0.33 µM
18 | CC(C)C[C@H](NC(C)c1ccc(/C=C/C(=O)NO)cc1)C(=O)O (stereo partly drawn) [Example 112, N-(1-{4-[(1E)-3-(Hydroxyamino)-3-oxoprop-1-en-1-yl]phenyl}ethyl)-L-leucine] | < 0.1 µM |  | 
19 | CC(C)(C)[C@H](NCc1ccc(CCC(=O)NO)cc1)C(=O)OC1CCCC1 [Example 43, Cyclopentyl N-{4-[3-(hydroxyamino)-3-oxopropyl]benzyl}-3-methyl-L-valinate] | > 1 µM | 0.331 to 3.3 µM | 0.331 to 3.3 µM
20 | CC(C)C[C@H](NCc1ccc(CCC(=O)NO)cc1)C(=O)O[C@@H]1C[C@H](C)CC[C@H]1C(C)C [Example 45, (1R,2S,5R)-2-Isopropyl-5-methylcyclohexyl N-{4-[3-(hydroxyamino)-3-oxopropyl]benzyl}-L-leucinate] | > 1 µM | 0.331 to 3.3 µM | < 0.33 µM

Row | Compound | IC50 [1] | IC50 (HUT78 cells) | IC50 (U937 cells)
21 | CC(C)C[C@H](NCc1ccc(CCC(=O)NO)cc1)C(=O)OC(C)(C)C [Example 41, tert-Butyl N-{4-[3-(hydroxyamino)-3-oxopropyl]benzyl}-L-leucinate] | 0.101 to 1 µM | 0.331 to 3.3 µM | < 0.33 µM
22 | CC(C)C[C@H](NCc1ccc(CCC(=O)NO)cc1)C(=O)O [Example 97] | < 0.1 µM |  | 
23 | O=C(CCc1ccc(CN[C@H](C(=O)O)C2CCCCC2)cn1)NO [Example 103] | < 0.1 µM |  | 
24 | O=C(/C=C/c1ccc(CN[C@@H](C(=O)O)C2CCCCC2)cc1)NO [Example 93] | 0.101 to 1 µM |  | 
25 | O=C(/C=C/c1ccc(CN2CCC(N[C@H](C(=O)O)C3CCCCC3)CC2)cc1)NO [Example 106] | 0.101 to 1 µM |  | 
26 | CC[C@H](C)[C@H](NCc1ccc(CCC(=O)NO)cc1)C(=O)O [Example 109, N-{4-[3-(Hydroxyamino)-3-oxopropyl]benzyl}-L-isoleucine] | > 1 µM |  | 
27 | CC(C)C[C@@H](NCc1ccc(/C=C/C(=O)NO)cc1)C(=O)O [Example 92] | 0.101 to 1 µM |  | 
28 | O=C(/C=C/c1ccc(CN[C@@H](C(=O)O)c2ccccc2)cc1)NO [Example 95] | 0.101 to 1 µM |  | 
29 | CC(N[C@H](C(=O)O)C1CCCCC1)c1ccc(/C=C/C(=O)NO)cc1 (stereo partly drawn) [Example 108] | < 0.1 µM |  | 
30 | CC(C)C[C@H](NCc1ccc(/C=C/C(=O)NO)nc1)C(=O)O [Example 102] | < 0.1 µM |  | 
31 | CC(C)(C)OC[C@@H](NCc1ccc(/C=C/C(=O)NO)cc1)C(=O)O [Example 94] | 0.101 to 1 µM |  | 
32 | CC(C)(C)OC(=O)[C@@H](NCc1cccc(CCC(=O)NO)c1)c1ccccc1 [Example 49, tert-Butyl (2S)-({3-[3-(hydroxyamino)-3-oxopropyl]benzyl}amino)(phenyl)acetate] |  | > 3.3 µM | > 3.3 µM
33 | O=C(/C=C/c1ccc(CN[C@H](C(=O)O)c2ccccc2)cc1)NO [Example 91] | 0.101 to 1 µM |  | 
34 | CC(C)(C)OC[C@H](NCc1ccc(/C=C/C(=O)NO)cc1)C(=O)O [Example 90] | 0.101 to 1 µM |  | 
35 | CC(C)(C)[C@H](NCc1ccc(CCC(=O)NO)cc1)C(=O)O [Example 100] | > 1 µM |  | 
36 | O=C(/C=C/c1cccc(CNCC2CCC(CN[C@H](C(=O)O)C3CCCCC3)CC2)c1)NO (stereo partly drawn) [Example 105] | > 1 µM |  | 
37 | O=C(/C=C/c1ccc(CN[C@H](C(=O)O)C2CCCCC2)cn1)NO [Example 101] | < 0.1 µM |  | 
38 | O=C(CCc1ccc(CN[C@H](C(=O)O)c2ccccc2)cc1)NO [Example 98] | > 1 µM |  | 
39 | O=C(CCc1ccc(CN[C@H](C(=O)O)C2CCCCC2)cc1)NO [Example 96] | 0.101 to 1 µM |  | 
40 | CC(C)(C)OC(=O)[C@@H](NCc1ccc(CCC(=O)NO)nc1)C1CCCCC1 [Example 63, tert-Butyl (2S)-cyclohexyl[({6-[3-(hydroxyamino)-3-oxopropyl]pyridin-3-yl}methyl)amino]acetate] | < 0.1 µM |  | 
